For the assay, the system named is mouse. Kind of assay: Oral activity in vivo: audiogenic mouse test and/or MES test. The note with it: oral administration. How it is done:
The oral bioavailability was tested using the audiogenic mouse test (Audiogenic seizures, R. L. Collins; Chapter 14, pages: 347-372. In: Experimental Models of Epilepsy; By: Pupura, Penry, Tower, Woodbury, Walter, Raven Press, New York, 1972. Standard Book Number: 0-911216-26-X) and/or the MES test.

With `Cn1nncc1-c1cc2c(=O)n(NS(C)(=O)=O)c(=O)[nH]c2cc1C(F)(F)F` [Comparative, N-(6-(1-methyl-1H-1,2,3-triazol-5-yl)-2,4-dioxo-7-trifluoromethyl-1,4-dihydro-2H-quinazolin-3-yl]-methanesulfonamide, reference compound], the “In vivo orally active” value is reported as “No”.

For `CC(O)c1cc2c(=O)n(NS(C)(=O)=O)c(=O)[nH]c2cc1C(F)(F)F` (stereo not drawn) [Compound A-1, N-[6-(1-Hydroxy-ethyl)-2,4-dioxo-7-trifluoromethyl-1,4-dihydro-2H-quinazolin-3-yl]-methanesulfonamide], the “In vivo orally active” value is listed as “Yes”.

With `COC(C)c1cc2c(=O)n(NS(C)(=O)=O)c(=O)[nH]c2cc1C(F)(F)F` (stereo not drawn) [Compound A-2, N-[6-(1-Methoxy-ethyl)-2,4-dioxo-7-trifluoromethyl-1,4-dihydro-2H-quinazolin-3-yl]-methanesulfonamide], the “In vivo orally active” value was “Yes”.

Take `CCC(O)c1cc2c(=O)n(NS(C)(=O)=O)c(=O)[nH]c2cc1C(F)(F)F` (stereo not drawn) [Compound A-3, N-[6-(1-Hydroxy-propyl)-2,4-dioxo-7-trifluoromethyl-1,4-dihydro-2H-quinazolin-3-yl]-methanesulfonamide]: the “In vivo orally active” value is “Yes”.

`CC(C)OC(C)c1cc2c(=O)n(NS(C)(=O)=O)c(=O)[nH]c2cc1C(F)(F)F` (stereo not drawn) [Compound A-4, N-[6-(1-Isopropoxy-ethyl)-2,4-dioxo-7-trifluoromethyl-1,4-dihydro-2H-quinazolin-3-yl]-methanesulfonamide]: the “In vivo orally active” value is on record as “Yes”.

For `CCOC(C)c1cc2c(=O)n(NS(C)(=O)=O)c(=O)[nH]c2cc1C(F)(F)F` (stereo not drawn) [Compound A-5, N-[6-(1-Ethoxy-ethyl)-2,4-dioxo-7-trifluoromethyl-1,4-dihydro-2H-quinazolin-3-yl]-methanesulfonamide], the “In vivo orally active” value is listed as “Yes”.

In the case of `CCCOC(CC)c1cc2c(=O)n(NS(C)(=O)=O)c(=O)[nH]c2cc1C(F)(F)F` (stereo not drawn) [Compound A-6, N-[2,4-Dioxo-6-(1-propoxy-propyl)-7-trifluoromethyl-1,4-dihydro-2H-quinazolin-3-yl]-methanesulfonamide], the “In vivo orally active” value is on record as “Yes”.

`CCC(OC(C)C)c1cc2c(=O)n(NS(C)(=O)=O)c(=O)[nH]c2cc1C(F)(F)F` (stereo not drawn) [Compound A-7, N-[6-(1-isopropoxy-propyl)-2,4-dioxo-7-trifluoromethyl-1,4-dihydro-2H-quinazolin-3-yl]-methanesulfonamide]: the “In vivo orally active” value is “Yes”.

`CCOC(CC)c1cc2c(=O)n(NS(C)(=O)=O)c(=O)[nH]c2cc1C(F)(F)F` (stereo not drawn) [Compound A-13, N-[6-(1-Ethoxy-propyl)-2,4-dioxo-7-trifluoromethyl-1,4-dihydro-2H-quinazolin-3-yl]-methanesulfonamide]: the “In vivo orally active” value is reported as “Yes”.

Consider `CC(OC1CCCC1)c1cc2c(=O)n(NS(C)(=O)=O)c(=O)[nH]c2cc1C(F)(F)F` (stereo not drawn) [Compound A-14, N-[6-(1-Cyclopentyloxy-ethyl)-2,4-dioxo-7-trifluoromethyl-1,4-dihydro-2H-quinazolin-3-yl]-methanesulfonamide], for which the “In vivo orally active” value is recorded as “yes”.

With `CCCC(O)c1cc2c(=O)n(NS(C)(=O)=O)c(=O)[nH]c2cc1C(F)(F)F` (stereo not drawn) [Compound A-15, N-[6-(1-Hydroxy-butyl)-2,4-dioxo-7-trifluoromethyl-1,4-dihydro-2H-quinazolin-3-yl]-methanesulfonamide], the “In vivo orally active” value is listed as “Yes”.

As for `COCCC(O)c1cc2c(=O)n(NS(C)(=O)=O)c(=O)[nH]c2cc1C(F)(F)F` (stereo not drawn) [Compound A-18, N-[6-(1-Hydroxy-3-methoxy-propyl)-2,4-dioxo-7-trifluoromethyl-1,4-dihydro-2H-quinazolin-3-yl]-methanesulfonamide], the “In vivo orally active” value is listed as “Yes”.

Take `CS(=O)(=O)Nn1c(=O)[nH]c2cc(C(F)(F)F)c(C3CCCO3)cc2c1=O` (stereo not drawn) [Compound B-2, N-[2,4-Dioxo-6-(tetrahydro-furan-2-yl)-7-trifluoromethyl-1,4-dihydro-2H-quinazolin-3-yl]-methanesulfonamide]: the “In vivo orally active” value is on record as “Yes”.

Regarding `CS(=O)(=O)Nn1c(=O)[nH]c2cc(C(F)(F)F)c(C3CCOC3)cc2c1=O` (stereo not drawn) [Compound B-3, N-[2,4-Dioxo-6-(tetrahydro-furan-3-yl)-7-trifluoromethyl-1,4-dihydro-2H-quinazolin-3-yl]-methanesulfonamide], the “In vivo orally active” value is reported as “Yes”.

For the molecule `COCCn1nccc1-c1cc2c(=O)n(NS(C)(=O)=O)c(=O)[nH]c2cc1C(C)C` [Compound C-1, N-{7-Isopropyl-6-[2-(2-methoxy-ethyl)-2H-pyrazol-3-yl]-2,4-dioxo-1,4-dihydro-2H-quinazolin-3-yl}-methanesulfonamide], the “In vivo orally active” value is reported as “yes”.

With `CC(C)n1nccc1-c1cc2c(=O)n(NS(C)(=O)=O)c(=O)[nH]c2cc1C(F)(F)F` [Compound C-2, N-[6-(2-Isopropyl-2H-pyrazol-3-yl)-2,4-dioxo-7-trifluoromethyl-1,4-dihydro-2H-quinazolin-3-yl]-methanesulfonamide], the “In vivo orally active” value is “Yes”.

As for `CC(C)n1nccc1-c1cc2c(=O)n(NS(C)(=O)=O)c(=O)[nH]c2cc1CF` [Compound C-3, N-[7-Fluoromethyl-6-(2-isopropyl-2H-pyrazol-3-yl)-2,4-dioxo-1,4-dihydro-2H-quinazolin-3-yl]-methanesulfonamide], the “In vivo orally active” value is “Yes”.

`COCCn1nccc1-c1cc2c(=O)n(NS(C)(=O)=O)c(=O)[nH]c2cc1C(F)(F)F` [Compound C-4, N-{6-[2-(2-Methoxy-ethyl)-2H-pyrazol-3-yl]-2,4-dioxo-7-trifluoromethyl-1,4-dihydro-2H-quinazolin-3-yl}-methanesulfonamide]: the “In vivo orally active” value is recorded as “Yes”.

Turning to `CS(=O)(=O)Nn1c(=O)[nH]c2cc(C(F)(F)F)c(-c3ccnn3O)cc2c1=O` [Compound C-5, N-[6-(2-Hydroxy-2H-pyrazol-3-yl)-2,4-dioxo-7-trifluoromethyl-1,4-dihydro-2H-quinazolin-3-yl]-methanesulfonamide], the “In vivo orally active” value is reported as “Yes”.

With `CCc1cc2[nH]c(=O)n(NS(C)(=O)=O)c(=O)c2cc1-c1ccnn1C(C)C` [Compound C-6, N-[7-Ethyl-6-(2-isopropyl-2H-pyrazol-3-yl)-2,4-dioxo-1,4-dihydro-2H-quinazolin-3-yl]-methanesulfonamide], the “In vivo orally active” value is listed as “Yes”.

As to `CC(C)c1cc2[nH]c(=O)n(NS(C)(=O)=O)c(=O)c2cc1-c1ccnn1C` [Compound C-7, N-[7-Isopropyl-6-(2-methyl-2H-pyrazol-3-yl)-2,4-dioxo-1,4-dihydro-2H-quinazolin-3-yl]-methanesulfonamide], the “In vivo orally active” value is “Yes”.

For `CC(C)c1cc2[nH]c(=O)n(NS(C)(=O)=O)c(=O)c2cc1-c1ccnn1C(C)C` [Compound C-8, N-[7-Isopropyl-6-(2-isopropyl-2H-pyrazol-3-yl)-2,4-dioxo-1,4-dihydro-2H-quinazolin-3-yl]-methanesulfonamide], the “In vivo orally active” value is reported as “yes”.

Consider `Cn1nccc1-c1cc2c(=O)n(NS(C)(=O)=O)c(=O)[nH]c2cc1C(F)F` [Compound C-9, N-[7-Difluoromethyl-6-(2-methyl-2H-pyrazol-3-yl)-2,4-dioxo-1,4-dihydro-2H-quinazolin-3-yl]-methanesulfonamide], for which the “In vivo orally active” value is given as “Yes”.

`CC(C)n1nccc1-c1cc2c(=O)n(NS(C)(=O)=O)c(=O)[nH]c2cc1C(F)F` [Compound C-10, N-[7-Difluoromethyl-6-(2-isopropyl-2H-pyrazol-3-yl)-2,4-dioxo-1,4-dihydro-2H-quinazolin-3-yl]-methanesulfonamide]: the “In vivo orally active” value is given as “Yes”.

For the molecule `CCc1cc2[nH]c(=O)n(NS(C)(=O)=O)c(=O)c2cc1-c1ccnn1C` [Compound C-11, N-[7-Ethyl-6-(2-methyl-2H-pyrazol-3-yl)-2,4-dioxo-1,4-dihydro-2H-quinazolin-3-yl]-methanesulfonamide], the “In vivo orally active” value is “Yes”.

Take `CCc1cc2[nH]c(=O)n(NS(C)(=O)=O)c(=O)c2cc1-c1ccnn1CC` [Compound C-12, N-[7-Ethyl-6-(2-ethyl-2H-pyrazol-3-yl)-2,4-dioxo-1,4-dihydro-2H-quinazolin-3-yl]-methanesulfonamide]: the “In vivo orally active” value is listed as “Yes”.

With `Cn1nccc1-c1cc2c(=O)n(NS(C)(=O)=O)c(=O)[nH]c2cc1C(C)(F)F` [Compound C-15, N-[7-(1,1-difluoro-ethyl)-6-(2-methyl-2H-pyrazol-3-yl)-2,4-dioxo-1,4-dihydro-2H-quinazolin-3-yl]-methanesulfonamide], the “In vivo orally active” value is “Yes”.

As to `CC(C)n1nccc1-c1cc2c(=O)n(NS(C)(=O)=O)c(=O)[nH]c2cc1C(C)(F)F` [Compound C-16, N-[7-(1,1-difluoro-ethyl)-6-(2-isopropyl-2H-pyrazol-3-yl)-2,4-dioxo-1,4-dihydro-2H-quinazolin-3-yl]-methanesulfonamide], the “In vivo orally active” value is recorded as “Yes”.

For the molecule `CC(F)c1cc2[nH]c(=O)n(NS(C)(=O)=O)c(=O)c2cc1-c1ccnn1C(C)C` (stereo not drawn) [Compound C-17, N-[7-(1-fluoro-ethyl)-6-(2-isopropyl-2H-pyrazol-3-yl)-2,4-dioxo-1,4-dihydro-2H-quinazolin-3-yl]-methanesulfonamide], the “In vivo orally active” value was “Yes”.

As for `Cn1nccc1-c1cc2c(=O)n(NS(C)(=O)=O)c(=O)[nH]c2cc1C(F)(F)F` [Compound C-18, N-[6-(2-Methyl-2H-pyrazol-3-yl)-2,4-dioxo-7-trifluoromethyl-1,4-dihydro-2H-quinazolin-3-yl]-methanesulfonamide], the “In vivo orally active” value was “Yes”.

The values above are taken from US20140018376A1, “Use of 1H-Quinazoline-2,4-Diones” (priority 2009, published 2014).
